Each structure is given as a SMILES string.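 Protocol summary: plate cells (96-well), add compound at 5 concentrations, incubate 48 h, interpolate endpoints linearly. TGI: total growth inhibition.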 Where only a bound is given, the exact number is not on record here.

Some test systems named below: EKVX NSCLC; HCC-2998 colon; HOP-92 NSCLC; IGROV1 ovarian; K-562 leukemia; MALME-3M melanoma; MCF7 breast; NCI-H23 lung; OVCAR-5 ovarian; RXF 393 renal; SF-539 CNS; SK-OV-3 ovarian; U251 CNS.
Holding throughout (experiment): DTP human tumour cell line panel, 48 h

The term TGI denotes the concentration giving total growth inhibition. A low value points to greater sensitivity of the cells. In the case of `COC(=O)[C@]1(c2cc3ccccc3[nH]2)CC2CN(CC(=O)N(C)OC)C1C1OC(C)(C)OC21` (some centres not stated), the TGI in the test with EKVX NSCLC, in the test on HCC-2998 colon, in the test on HOP-92 NSCLC, in the test with IGROV1 ovarian, in the test on K-562 leukemia and in the test on MALME-3M melanoma was above 100 µM each time. For the same compound, the concentration for total growth inhibition (TGI) in the test on MCF7 breast, in the test with NCI-H23 lung, in the test on OVCAR-5 ovarian, in the test on RXF 393 renal, in the test on SF-539 CNS and in the test on SK-OV-3 ovarian was above 100 µM throughout. In the test with U251 CNS, the TGI was above 100 µM.

Regarding `O=[N+]([O-])c1cc(Cl)ccc1S(=O)(=O)c1ccccc1`, the total growth inhibition concentration (TGI) in the test on EKVX NSCLC, in the test on HCC-2998 colon, in the test on HOP-92 NSCLC, with IGROV1 ovarian, in the test on K-562 leukemia and in the test with MALME-3M melanoma was above 100 µM throughout. Also, the TGI in the test on MCF7 breast, in the test with NCI-H23 lung, in the test on OVCAR-5 ovarian, in the test with RXF 393 renal, in the test with SF-539 CNS and with SK-OV-3 ovarian was above 100 µM in each case. This compound also showed a TGI in the test with U251 CNS above 100 µM.

With `CNC(=O)N(CCC#N)CCN(CCN(C(=O)NC)c1ccccc1)C(=O)NC`, the TGI in the test with EKVX NSCLC, in the test with HCC-2998 colon, with HOP-92 NSCLC, with IGROV1 ovarian, in the test on K-562 leukemia and in the test on MALME-3M melanoma was above 100 µM in each case. The TGI in the test with MCF7 breast, in the test with NCI-H23 lung, in the test on OVCAR-5 ovarian, in the test with RXF 393 renal, in the test on SF-539 CNS and with SK-OV-3 ovarian was above 100 µM throughout. This compound also gave a TGI with U251 CNS above 100 µM.

Regarding `COc1cc2c(cc1OC)-c1cc3ccccc3c(=O)n1CCC2`, the TGI with EKVX NSCLC was above 100 µM; in the test on HCC-2998 colon, above 64.3 µM; in the test on HOP-92 NSCLC, 68.3 µM; in the test with IGROV1 ovarian, 66 µM; in the test with K-562 leukemia, above 81.9 µM; in the test on MALME-3M melanoma, 98.1 µM. In addition, the total growth inhibition concentration (TGI) in the test with MCF7 breast is above 89.5 µM; in the test with NCI-H23 lung, 65.1 µM; with OVCAR-5 ovarian, above 100 µM; in the test on RXF 393 renal, 57.5 µM; with SF-539 CNS it was 26 µM; with SK-OV-3 ovarian, above 100 µM. The same compound had a concentration for total growth inhibition (TGI) in the test on U251 CNS above 65.7 µM.

Source of the values: PubChem BioAssay (NCI).
